{"source": "patent US20160279190A1", "about": "“MODULATION OF AXON DEGENERATION” (GENENTECH, INC., priority 2008, published 2016)", "tested_on": "DRGs", "test": "Campenot chamber local axon degeneration, anti-NGF in axon compartment", "assay_type": "cell-based, mouse", "conditions": "inhibitor 15 μM; anti-NGF in axon compartment, 28 hours", "data": [{"smiles": "O=C(O)c1ccc2c3c1cccc3c(=O)n1c3ccccc3nc21", "note": "[STO-609]", "values": [{"measurement": "Axon Compartment (axon protected when inhibitor is in axon compartment)", "result": "Yes (1)"}, {"measurement": "Cell Body Compartment (axon protected when inhibitor is in cell body compartment)", "result": "No (1)"}]}]}
